Entries after “also recorded” stand apart in the source; their conditions may differ.
Assays:
[1] = test system: primary neuronal chromaffin cells; assay: Aβ secretion by primary neuronal chromaffin cell cultures; format: cell-based, bovine; conditions: 50 μM for 18 hours
Protocol: Neuronal bovine chromaffin cells in primary culture can be used to select compounds that affect Aβ in the regulated or constitutive pathway. Regulated secretory Aβ is determined by measuring Aβ in the cell culture media after inducing the cells to secrete using a triggering stimulus, such as KCl. The constitutive secretory Aβ is determined by measuring Aβ in cell culture media (also called “conditioned media”) from resting cells. […] Regulated secretion was induced by exposing the cells to KCl (50 mM) for 15 minutes. […] Treated cells (+) received CA074Me (50 μM) for 18 hours. The Aβ40 produced by regulated secretion of the treated cells is about 50% less than that produced from regulated secretion by untreated cells. […]
Reversible cathepsin B compounds that inhibited Aβ production in isolated secretory vesicles by at least 50% at 10 μM were tested for reduction of Aβ secreted from the regulated secretory pathway of primary neuronal chromaffin cells. […] Cells were incubated with inhibitors (first at 50 μM) for about 18 hours, and then KCl-induced secretion of Aβ from the regulated secretory pathway was analyzed, by incubating cells in 50 mM KCl for about 15 minutes and measurement of Aβ peptides in the secretion medium Inhibitor effects were more readily detected during increased rates of Aβ production, which can be induced by treatment of cells with PMA (phorbol myristate acetate, 100 nM). […]

[2] = test system: Aβ40 production from endogenous APP in regulated secretory vesicles isolated from chromaffin cells; assay: Aβ production from endogenous APP in isolated regulated secretory vesicles; format: biochemical, bovine; conditions: inhibitor 10 μM
Protocol: Regulated secretory vesicles isolated from chromaffin cells naturally produce Aβ from endogenous APP when incubated at 37° C. in vitro for several hours. These vesicles can be used as an in vitro screen for compounds that inhibit Aβ production. […] The effects of cathepsin B inhibitors, CA074 (10 μM, ♦) and CA074Me (10 μM, □), on the production of Aβ40 from endogenous APP in regulated secretory vesicles isolated from chromaffin cells was evaluated in time course studies. […] Each inhibitor was tested in triplicate; values represent x±sem (*statistically significant with p<0.05).
Cathepsin B compounds that were effective inhibitors of endogenous II-secretase activity were tested for inhibition of Aβ peptide production in regulated secretory vesicles. The effect of reversible cathepsin B compounds on production of Aβ40 and Aβ42 in isolated chromaffin vesicles was tested by incubating candidate inhibitors (at 10 μM) with lysed chromaffin vesicles under identical conditions as for the β-secretase assay for 8 hours. […] After incubation, Aβ40 and Aβ42 was measured by ELISA assays, as described for measurement of Aβ peptides in brain extracts. Each candidate inhibitor was assayed in triplicate.

CCCNC(=O)[C@H]1O[C@@H]1C(=O)N[C@H](C(=O)N1CCC[C@H]1C(=O)OC)[C@@H](C)CC [CA074Me]
reduction of Aβ40 produced by regulated secretion ([1]; KCl (50 mM) 15 minutes, vs untreated cells): about 50%
Aβ40 produced by constitutive secretion vs untreated cells ([1]; resting cells): the same
effect on Aβ production in isolated regulated secretory vesicles [2]: inhibited; also recorded: block Aβ production
